Assay results as given in patent US8952181B2, “Organic semiconductive material precursor containing dithienobenzodithiophene derivative, ink, insulating member, charge-transporting member, and organic electronic device” (Ricoh Company, Ltd., priority 2010, dated 2015).

Assay: Solubility in organic solvents
Type: physicochemical
Details: THF, chloroform, toluene, xylene, mesitylene, diethyl ether, dichloromethane, and ethanol
Method: The solubility test of Example Compound 1-2 of Example 1 was performed by dissolving Example Compound 1-2 respectively in THF, chloroform, toluene, xylene, mesitylene, diethyl ether, dichloromethane, and ethanol. Example Compound 1-2 was not dissolved in any of the above-described solvents, and cannot form a film by various printing methods.

solubility test | Structure (SMILES)
not dissolved | C(=C\c1cc2sc3cc4c(cc3c2s1)sc1cc(/C=C/c2ccccc2)sc14)/c1ccccc1 [Example Compound 1-2]

Same assay, conditions: solvent such as THF or toluene

solubility in solvent | Structure (SMILES)
easily dissolved | Cc1ccc(-c2ccc(CC(O)c3cc4sc5cc6c(cc5c4s3)sc3cc(C(O)Cc4ccc(-c5ccc(C)cc5)cc4)sc36)cc2)cc1 (centres unmarked) [Example Compound 17]

Same assay, conditions: solvent such as THF, toluene, chloroform, xylene, diethyl ether, or dichloromethane

solubility in solvent | Structure (SMILES)
easily dissolved | O=C(CCl)OC(Cc1ccccc1)c1cc2sc3cc4c(cc3c2s1)sc1cc(C(Cc2ccccc2)OC(=O)CCl)sc14 (centres unmarked) [Example Compound 14]
easily dissolved | CC(C)(C)C(=O)OC(Cc1ccccc1)c1cc2sc3cc4c(cc3c2s1)sc1cc(C(Cc2ccccc2)OC(=O)C(C)(C)C)sc14 (centres unmarked) [Example Compound 1]
easily dissolved | CCCCCC(=O)OC(Cc1ccc(-c2ccc(C)cc2)cc1)c1cc2sc3cc4c(cc3c2s1)sc1cc(C(Cc2ccc(-c3ccc(C)cc3)cc2)OC(=O)CCCCC)sc14 (centres unmarked) [Example Compound 18]
easily dissolved | CC(=O)CC(=O)OC(Cc1ccccc1)c1cc2sc3cc4c(cc3c2s1)sc1cc(C(Cc2ccccc2)OC(=O)CC(C)=O)sc14 (centres unmarked) [Example Compound 24]
easily dissolved | CCCCCCc1ccc(CC(OC(=O)C(C)=O)c2cc3sc4cc5c(cc4c3s2)sc2cc(C(Cc3ccc(CCCCCC)cc3)OC(=O)C(C)=O)sc25)cc1 (centres unmarked) [Example Compound 16]
easily dissolved | COC(Cc1ccccc1)c1cc2sc3cc4c(cc3c2s1)sc1cc(C(Cc2ccccc2)OC)sc14 (centres unmarked) [Example Compound 12]
easily dissolved | CCOC(=O)CC(=O)OC(Cc1ccccc1)c1cc2sc3cc4c(cc3c2s1)sc1cc(C(Cc2ccccc2)OC(=O)CC(=O)OCC)sc14 (centres unmarked) [Example Compound 13]
easily dissolved | CCCCCOC(=O)OC(Cc1ccccc1)c1cc2sc3cc4c(cc3c2s1)sc1cc(C(Cc2ccccc2)OC(=O)OCCCCC)sc14 (centres unmarked) [Example Compound 11]
easily dissolved | O=C(CCC(F)(F)F)OC(Cc1ccccc1)c1cc2sc3cc4c(cc3c2s1)sc1cc(C(Cc2ccccc2)OC(=O)CCC(F)(F)F)sc14 (centres unmarked) [Example Compound 15]
easily dissolved | CCCCCC(=O)OC(Cc1ccccc1)c1cc2sc3cc4c(cc3c2s1)sc1cc(C(Cc2ccccc2)OC(=O)CCCCC)sc14 (centres unmarked) [Example Compound 2]

Same assay, conditions: solvent such as THF, toluene, chloroform, xylene, or dichloromethane

solubility in solvent | Structure (SMILES)
easily dissolved | CSC(=S)OC(Cc1ccc(C)cc1)c1cc2sc3cc4c(cc3c2s1)sc1cc(C(Cc2ccc(C)cc2)OC(=S)SC)sc14 (centres unmarked) [Example Compound 23]

Assay: TG-DTA thermal analysis (elimination of X-Y on heating)
Type: physicochemical
Details: temperature increase rate 5° C./min
Method: A TG-DTA measurement with respect to Example Compound 1 was performed using TG/DTA200 (manufactured by Seiko Instruments is Inc.). […] This was identical with the melting point of the following Example Compound 1-2 described in Japanese Patent Application Laid-Open (JP-A) No. 2011-44686.

mass reduction, found value [%] | Structure (SMILES)
17.9 | CC(=O)OC(Cc1ccc(C)cc1)c1cc2sc3cc4c(cc3c2s1)sc1cc(C(Cc2ccc(C)cc2)OC(C)=O)sc14 (centres unmarked) [Example Compound 5]
32.6 | O=C(CC(F)(F)F)OC(Cc1ccccc1)c1cc2sc3cc4c(cc3c2s1)sc1cc(C(Cc2ccccc2)OC(=O)CC(F)(F)F)sc14 (centres unmarked) [Example Compound 3]
26.6 | O=C(CCl)OC(Cc1ccccc1)c1cc2sc3cc4c(cc3c2s1)sc1cc(C(Cc2ccccc2)OC(=O)CCl)sc14 (centres unmarked) [Example Compound 14]
29.7 | CC(C)(C)C(=O)OC(Cc1ccccc1)c1cc2sc3cc4c(cc3c2s1)sc1cc(C(Cc2ccccc2)OC(=O)C(C)(C)C)sc14 (centres unmarked) [Example Compound 1]
24.2 | CCCCCC(=O)OC(Cc1ccc(-c2ccc(C)cc2)cc1)c1cc2sc3cc4c(cc3c2s1)sc1cc(C(Cc2ccc(-c3ccc(C)cc3)cc2)OC(=O)CCCCC)sc14 (centres unmarked) [Example Compound 18]
25.7 | CC(=O)CC(=O)OC(Cc1ccccc1)c1cc2sc3cc4c(cc3c2s1)sc1cc(C(Cc2ccccc2)OC(=O)CC(C)=O)sc14 (centres unmarked) [Example Compound 24]
21.1 | CCCCCCc1ccc(CC(OC(=O)C(C)=O)c2cc3sc4cc5c(cc4c3s2)sc2cc(C(Cc3ccc(CCCCCC)cc3)OC(=O)C(C)=O)sc25)cc1 (centres unmarked) [Example Compound 16]
13.9 | COC(Cc1ccccc1)c1cc2sc3cc4c(cc3c2s1)sc1cc(C(Cc2ccccc2)OC)sc14 (centres unmarked) [Example Compound 12]
4.0 | CCCCCCc1ccc(CC(O)c2cc3sc4cc5c(cc4c3s2)sc2cc(C(O)Cc3ccc(CCCCCC)cc3)sc25)cc1 (centres unmarked) [Example Compound 7]
35.5 | CCOC(=O)CC(=O)OC(Cc1ccccc1)c1cc2sc3cc4c(cc3c2s1)sc1cc(C(Cc2ccccc2)OC(=O)CC(=O)OCC)sc14 (centres unmarked) [Example Compound 13]
33.3 | CCCCCOC(=O)OC(Cc1ccccc1)c1cc2sc3cc4c(cc3c2s1)sc1cc(C(Cc2ccccc2)OC(=O)OCCCCC)sc14 (centres unmarked) [Example Compound 11]
34.3 | O=C(CCC(F)(F)F)OC(Cc1ccccc1)c1cc2sc3cc4c(cc3c2s1)sc1cc(C(Cc2ccccc2)OC(=O)CCC(F)(F)F)sc14 (centres unmarked) [Example Compound 15]
4.0 | Cc1ccc(-c2ccc(CC(O)c3cc4sc5cc6c(cc5c4s3)sc3cc(C(O)Cc4ccc(-c5ccc(C)cc5)cc4)sc36)cc2)cc1 (centres unmarked) [Example Compound 17]
30.0 | CCCCCC(=O)OC(Cc1ccc(C)cc1)c1cc2sc3cc4c(cc3c2s1)sc1cc(C(Cc2ccc(C)cc2)OC(=O)CCCCC)sc14 (centres unmarked) [Example Compound 4]
31.4 | CCCCCC(=O)OC(Cc1ccccc1)c1cc2sc3cc4c(cc3c2s1)sc1cc(C(Cc2ccccc2)OC(=O)CCCCC)sc14 (centres unmarked) [Example Compound 2]
15.1 | CCCCCCc1ccc(CC(OC(C)=O)c2cc3sc4cc5c(cc4c3s2)sc2cc(C(Cc3ccc(CCCCCC)cc3)OC(C)=O)sc25)cc1 (centres unmarked) [Example Compound 6]
